Results: patent US20210244721A1, “SMALL MOLECULE ENTEROVIRUS INHIBITORS AND USES THEREOF” (priority 2020, published 2021)
Where two headings read alike, the source gives them in different places.

Experiments:
[1] = Cytotoxicity in Vero C1008 cells; settings: African green monkey
CVB3 = assay: CPE assay, CVB3 in Vero C1008 cells; assay type: cell-based, coxsackievirus B3 (CVB3); settings: Enterovirus B
EV-A71 Tainan/4643/98 = assay: CPE assay, EV-A71 Tainan in RD cells; assay type: cell-based; settings: Enterovirus A
CVB3 2C protein = target: T1, CVB3 2C protein (Coxsackievirus B3, UniProt P03313); assay: Thermal shift assay (differential scanning fluorimetry); assay type: binding
T1 construct: CVB3 Nancy 2C (amino acids 37 to 329) protein; His tag with TEV site (inferred from the pET28a(+)-TEV vector and Ni-NTA purification); made in house; host or cells: E. coli Rosetta 2(DE3)

[2] = test system: influenza A virus A/California/07/2009 (H1N1); assay: Plaque assay, influenza A virus; assay type: cell-based; settings: 10 μM
Protocol: (§1) Plaque assay was performed using the condition described previously (see, Wang, Y.; et al., J. Med. Chem. 2018, 61, 1074-1085). […] Oseltamivir carboxylate was included as a positive control and was tested at 200 nM.

sodium channels = assay: Sodium flux assay in DRG neurons; settings: rat DRG neurons, veratridine
Protocol: In this assay, rat dorsal root ganglia (DRG) neurons were incubated with various concentrations of testing compounds. Sodium channels were then activated by the sodium channel agonist veratridine. The resulting sodium flux was measured indirectly by quantifying the sodium channel triggered calcium flux, which was measured by a calcium-specific fluorescence dye (FIG. 4).
Dorsal root ganglion neurons were prepared as previously described^27 and were loaded for 30 minutes at 3TC with 3 μM Fura-2AM (Cat #F1221, Thermo Fisher, stock solution prepared at 1 mM in DMSO, 0.02% pluronic acid, Cat #P-3000MP, Life technologies) to follow changes in intracellular calcium ([Ca^2+]c) in a standard bath solution containing 139 mM NaCl, 3 mM KCl, 0.8 mM MgCl2, 1.8 mM CaCl2, 10 mM Na HEPES, pH 7.4, 5 mM glucose exactly as previously described^28 Fluorescence imaging was performed with an inverted microscope, NikonEclipseTi-U (Nikon Instruments Inc., Melville, N.Y.), using objective Nikon Fluor 4X and a Photometrics cooled CCD camera Cool SNAP ES^2 (Roper Scientific, Tucson, Ariz.) controlled by Nis Elements software (version 4.20, Nikon Instruments). […] Fluorescence was recorded through a 505-nm dichroic mirror at 535±25 nm. […] The changes in [Ca^2+]c were monitored by following a ratio of F340/F380, calculated after subtracting the background from both channels. […]

[3] = test system: EV-D68 US/KY/14-18953 virus; assay: CPE assay, EV-D68 US/KY/14-18953 in RD cells; assay type: cell-based, Enterovirus D68 (EV-D68)
[4] = test system: influenza B virus B/Brisbane/60/2008 (Victoria); assay: Plaque assay, influenza B virus; assay type: cell-based; settings: 10 μM
Protocol: as §1

[5] = test system: EV-D68 viral capsid protein VP1; assay: VP1 expression by immunofluorescence imaging and western blot; assay type: cell-based, Enterovirus D68 (EV-D68); settings: for VP1 protein expression: 1 μM, US/KY/14-18953 MOI=1, 9 hpi, immunofluorescence imaging and western blot
Protocol: The EV-D68 2C protein is a highly conserved viral protein that plays multiple functions in genome replication. It has been implicated in RNA replication, membrane rearrangements, encapsidation, and uncoating (see, Van der Linden, L.; et al., Viruses 2015, 7, 4529-4562). Inhibition of viral 2C protein is expected to inhibit viral RNA and protein synthesis.
Total proteins were extracted at 9 hpi using RAPI lysis buffer [50 mM Tris (pH 8.0), 1% NP-40, 0.1% SDS, 150 mM NaCl, 0.5% Sodium deoxycholate, 5 mM EDTA, 10 mM NaF, 10 mM NaPPi, […] 1 mM PMSF]. Equal amount of extracted total proteins were separated by electrophoresis and transferred to a polyvinylidene difluoride (PVDF) membrane. Viral protein VP1 or host GAPDH was recognized by rabbit anti-VP1 (GeneTex: GTX132313; 1:3,000 dilution) or mouse anti-GAPDH antibody (EMD Millipore: MAB374; 1:3,000 dilution), respectively, followed by detection using Horse radish peroxidase (HRP)-conjugated secondary antibody (ThermoFisher Scientific: 32430 or 656120; 1:3,000 dilutions) and Supersignal West Femto substrate (ThermoFisher Scientific).
At 9 hpi, infected cells were fixed with 4% formaldehyde for 10 min followed by permeabilization with 0.2% Triton X-100 for another 10 min. After blocking with 10% bovine serum, cells were stained with rabbit anti-VP1 antibody (GeneTex: GTX132313) and followed by staining with anti-rabbit secondary antibody conjugated to Alexa-488 (ThermoFisher Scientific). Nucleus were stained with 300 nM DAPI (ThermoFisher Scientific) after secondary antibodies incubation. Fluorescent images were acquired using a Leica SP5-II spectral Confocal Microscope (Leica).

RD cells = settings: human, 3 days
HeLa = assay: Cytotoxicity in HeLa cells
Protocol: (§2) The cytotoxicity of each compound was determined using the neutral red cell viability assay. The assay was performed under similar conditions (incubation temperature, time, and media) as the CPE, but excluded viral infection. Data acquisition and analysis (CC50) was performed similarly to the antiviral CPE assay, and all values are from triplicate experiments.

A549 = assay: Cytotoxicity in A549 cells
Protocol: as §2

A172 cells = assay: Cytotoxicity in A172 cells
Protocol: as §2

SH-SY5Y cells = assay: Cytotoxicity in SH-SY5Y cells
Protocol: as §2

EV-D68 US/MO/14-18947 = assay: CPE assay, EV-D68 US/MO/14-18947 in RD cells; settings: Enterovirus D, EVD68, RD, EV-D68 US/MO/14-18947, RD cells
EV-A71 US/AK/16-19516 = assay: CPE assay, EV-A71 US/AK in RD cells; assay type: cell-based; settings: Enterovirus A, EVA71
[6] = Enterovirus D, EVD68, RD, against five different strains of EV-D68 viruses (summary), read-out: EC50
[7] = EV-D68 US/KY/14-18953, RD cells, CPE assay, read-out: EC50
[8] = CVB3, Vero C1008 cells, read-out: EC50
[9] = EVA71, EV-A71 Tainan, RD cells, read-out: EC50

T1 sequence (P03313 1137-1429): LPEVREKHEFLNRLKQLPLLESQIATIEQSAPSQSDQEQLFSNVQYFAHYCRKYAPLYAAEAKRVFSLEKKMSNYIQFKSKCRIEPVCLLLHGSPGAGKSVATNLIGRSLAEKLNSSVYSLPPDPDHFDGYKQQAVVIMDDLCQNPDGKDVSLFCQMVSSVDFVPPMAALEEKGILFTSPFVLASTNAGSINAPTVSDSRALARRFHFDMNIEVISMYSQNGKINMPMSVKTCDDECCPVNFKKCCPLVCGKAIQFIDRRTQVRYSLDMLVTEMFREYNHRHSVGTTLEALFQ

CNCCC(Oc1ccc(C(F)(F)F)cc1)c1ccccc1 (stereo not drawn)
CC50 at 3 days [1]: 11 µM

COc1ccc(CC(C)NCC(O)c2ccc(O)c(NC=O)c2)cc1 (stereo not drawn)
EC50 (CVB3; CVB3, Vero C1008): 9.9 µM | CC50 at 3 days [1]: > 300 µM | EC50 (EV-A71 Tainan/4643/98; EVA71, RD): > 100 µM

CNCCNC(=O)c1cc(-c2ccc(F)cc2)nc2ccccc12 [Compound 6aw, 2-(4 fluorophenyl)-N-[2-(methylamino)ethyl]quinoline-4-carboxamide]
thermal stability of CVB3 2C (CVB3 2C protein; three concentrations (10, 30 or 100 μM)): increased the thermal stability of CVB3 2C in a concentration dependent manner

CN(C)CCNC(=O)c1cc(-c2ccccc2)nc2ccccc12 [Compound 10a, N-[2-(dimethylamino)ethyl]-2-phenylquinoline-4-carboxamide]
inhibition in plaque assay [2]: no inhibition | inhibition of sodium current conductance (sodium channels; 2 μM to 50 μM): minimal to no effect | EC50 ([3]; Enterovirus D, EVD68, RD, Table 6, EV-D68 US/KY/14-18953, RD cells): 0.4 ± 0.2 µM | EC50 [3, 6]: < 1 µM | inhibition in plaque assay [4]: no inhibition | VP1 protein expression ([5]; RD cells): completely blocked

O=C(NC1CN2CCC1CC2)c1cc(-c2ccccc2)nc2ccccc12 (stereo not drawn) [Compound 10c, N-{1-azabicyclo[2.2.2]octan-3-yl}-2-phenylquinoline-4-carboxamide]
CC50 (RD cells): 46.5 ± 14.7 µM

CN(C)CCNC(=O)c1cc(-c2cccs2)nc2ccccc12 [Compound 12a, N-[2-(dimethylamino)ethyl]-2-(thiophen-2-yl)quinoline-4-carboxamide]
inhibition in plaque assay [2]: no inhibition | EC50 ([3]; EV-D68 US/KY/14-18953, RD cells, CPE assay, listed as 6bf): 0.04 µM | EC50 ([3]; Enterovirus D, EVD68, RD, against five different strains of EV-D68 viruses (summary)): < 1 µM | inhibition in plaque assay [4]: no inhibition | VP1 protein expression ([5]; RD cells): completely blocked

O=C(NCCN1CCCC1)c1cc(-c2cccs2)nc2ccccc12 [Compound 12c, N-[2-(pyrrolidin-1-yl)ethyl]-2-(thiophen-2-yl)quinoline-4-carboxamide]
inhibition in plaque assay [2]: no inhibition | EC50 [3, 6]: < 1 µM | inhibition in plaque assay [4]: no inhibition | VP1 protein expression ([5]; RD cells): completely blocked

CCCCOc1cc(C(=O)NCCN(CC)CC)c2ccccc2n1 [dibucaine, reference compound]
inhibition in plaque assay [2]: no inhibition | inhibition of sodium current conductance (sodium channels; 20 μM and 50 μM): potently inhibited | inhibition in plaque assay [4]: no inhibition | VP1 protein expression ([5]; RD cells): no effect | fluorescent signal of VP1 (immunofluorescence) ([5]; 3 μM, 9 hpi, compared to DMSO control): significantly reduced | VP1 expression (western blot) ([5]; 3 μM, RD cells, 9 hpi): nearly completely inhibited

Cc1ccc2c(c1)c1c3n2CCNC3CCC1 (stereo not drawn) [drawing 10]
CC50 (RD cells): 19 ± 1.6 µM

CCCCOc1cc(C(=O)NCCN(CC)CC)c2ccccc2n1 [drawing 127]
CC50 (HeLa): 36 µM | CC50 (A549): 37.5 µM

CN(C)CCNC(=O)c1cc(-c2ccccc2)nc2ccccc12 [drawing 128]
CC50 (HeLa): 68.7 µM | EC50 [3, 7]: 0.4 µM | CC50 (A549): 121 µM

CN(C)CCNC(=O)c1cc(-c2cccs2)nc2ccccc12 [drawing 129]
CC50 (HeLa): 51.2 µM | EC50 ([3]; EV-D68 US/KY/14-18953, RD cells, CPE assay): 0.04 µM | CC50 (A549): 98.8 µM

CCCCOc1cc(C(=O)NCCN(CC)CC)c2ccccc2n1 [drawing 131]
CC50 (A172 cells): > 30 µM | CC50 (SH-SY5Y cells): > 30 µM

CN(C)CCNC(=O)c1cc(-c2ccccc2)nc2ccccc12 [drawing 132]
CC50 (A172 cells): 88.4 µM | CC50 (SH-SY5Y cells): > 300 µM

CN(C)CCNC(=O)c1cc(-c2cccs2)nc2ccccc12 [drawing 133]
CC50 (A172 cells): 73.8 µM | CC50 (SH-SY5Y cells): 136 µM

O=C(NCCN1CCCC1)c1cc(-c2cccs2)nc2ccccc12 [drawing 134]
CC50 (A172 cells): 65.4 µM | CC50 (SH-SY5Y cells): 93.3 µM

CN(C)CCNC(=O)c1cc(-c2ccc(F)cc2)nc2ccccc12 [drawing 185]
EC50 (CVB3; [8]): 0.06 µM | EC50 [3, 7]: 0.1 µM | EC50 (EV-A71 Tainan/4643/98; [9]): 2.2 µM | EC50 (EV-D68 US/MO/14-18947): 0.05 µM | EC50 (EV-A71 US/AK/16-19516): 2.3 µM

NCCNC(=O)c1cc(-c2ccc(F)cc2)nc2ccccc12 [drawing 187]
EC50 (CVB3; [8]): 0.4 µM | EC50 [3, 7]: 0.4 µM | EC50 (EV-A71 Tainan/4643/98; [9]): 9 µM | EC50 (EV-D68 US/MO/14-18947): 0.3 µM | EC50 (EV-A71 US/AK/16-19516): 14 µM

CNCCNC(=O)c1cc(-c2cccs2)nc2ccccc12 [drawing 192]
EC50 (CVB3; [8]): 0.3 µM | EC50 [3, 7]: 0.3 µM | EC50 (EV-A71 Tainan/4643/98; [9]): 8.4 µM | EC50 (EV-D68 US/MO/14-18947): 0.2 µM | EC50 (EV-A71 US/AK/16-19516): 11.5 µM

CCCCOc1cc(C(=O)NCCN(CC)CC)c2ccccc2n1 [drawing 195]
EC50 (CVB3; [8]): 1.3 µM | CC50 at 3 days ([1]; Vero C1008 cells): 64.4 µM | EC50 (EV-A71 Tainan/4643/98; [9]): > 10 µM

N=C(N)N [guanidine, reference compound]
Tm shift (CVB3 2C protein; 1 mM, CVB3 2C 4.5 μM): 1.77 °C
